From the supplement of paper PMC11451515

Test system: P12-Ichikawa
Assay: cell viability relative to DMSO control; higher = less cytotoxic
Settings: 48 h
Method in brief: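 Cells were incubated for 48 h at 37°C before CellTiter-Glo One luminescence was read. The cells were NOMO1 or SEM (500 cells/well) or P12-Ichikawa (1000 cells/well) leukemia cells, adapted for at least four passages in each medium and seeded in 1536-well plates (5 μl). Dosing used library compounds in DMSO applied by pin over 11 threefold points, 47 μM to 0.79 nM. Viability is the per-plate percentage of DMSO wells, with cell-free wells as background.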

[1] = HPLM + 10% dialyzed FBS, 0.000781 µM
[2] = HPLM + 10% dialyzed FBS, 0.00234 µM
[3] = HPLM + 10% dialyzed FBS, 0.00702 µM
[4] = HPLM + 10% dialyzed FBS, 0.0211 µM
[5] = HPLM + 10% dialyzed FBS, 0.0632 µM
[6] = HPLM + 10% dialyzed FBS, 0.19 µM
[7] = HPLM + 10% dialyzed FBS, 0.569 µM
[8] = HPLM + 10% dialyzed FBS, 1.71 µM
[9] = HPLM + 10% dialyzed FBS, 5.12 µM
[10] = HPLM + 10% dialyzed FBS, 15.4 µM
[11] = HPLM + 10% dialyzed FBS, 46.1 µM
[12] = RPMI 5 mM glucose + 10% FBS, 0.000781 µM
[13] = RPMI 5 mM glucose + 10% FBS, 0.00234 µM
[14] = RPMI 5 mM glucose + 10% FBS, 0.00702 µM
[15] = RPMI 5 mM glucose + 10% FBS, 0.0211 µM
[16] = RPMI 5 mM glucose + 10% FBS, 0.0632 µM
[17] = RPMI 5 mM glucose + 10% FBS, 0.19 µM
[18] = RPMI 5 mM glucose + 10% FBS, 0.569 µM
[19] = RPMI 5 mM glucose + 10% FBS, 1.71 µM
[20] = RPMI 5 mM glucose + 10% FBS, 5.12 µM
[21] = RPMI 5 mM glucose + 10% FBS, 15.4 µM
[22] = RPMI 5 mM glucose + 10% FBS, 46.1 µM
[23] = RPMI 5 mM glucose + 10% dialyzed FBS, 0.000781 µM
[24] = RPMI 5 mM glucose + 10% dialyzed FBS, 0.00234 µM
[25] = RPMI 5 mM glucose + 10% dialyzed FBS, 0.00702 µM
[26] = RPMI 5 mM glucose + 10% dialyzed FBS, 0.0211 µM
[27] = RPMI 5 mM glucose + 10% dialyzed FBS, 0.0632 µM
[28] = RPMI 5 mM glucose + 10% dialyzed FBS, 0.19 µM
[29] = RPMI 5 mM glucose + 10% dialyzed FBS, 0.569 µM
[30] = RPMI 5 mM glucose + 10% dialyzed FBS, 1.71 µM
[31] = RPMI 5 mM glucose + 10% dialyzed FBS, 5.12 µM
[32] = RPMI 5 mM glucose + 10% dialyzed FBS, 15.4 µM
[33] = RPMI 5 mM glucose + 10% dialyzed FBS, 46.1 µM

SMILES	cell viability [1]	cell viability [2]	cell viability [3]	cell viability [4]	cell viability [5]	cell viability [6]	cell viability [7]	cell viability [8]	cell viability [9]	cell viability [10]	cell viability [11]	cell viability [12]	cell viability [13]	cell viability [14]	cell viability [15]	cell viability [16]	cell viability [17]	cell viability [18]	cell viability [19]	cell viability [20]	cell viability [21]	cell viability [22]	cell viability [23]	cell viability [24]	cell viability [25]	cell viability [26]	cell viability [27]	cell viability [28]	cell viability [29]	cell viability [30]	cell viability [31]	cell viability [32]	cell viability [33]
COC[C@H]1OC(=O)C2=COC3=C2[C@@]1(C)\C4=C(C5CCC(=O)[C@@]5(C)C[C@H]4OC(C)=O)/C3=O (stereo not given in full)	93.1%	98.8%	104%	11.9%	108%	113%	107%	107%	110%	99.1%	101%	83.8%	99.7%	98.7%	12.2%	98.1%	93.6%	97.3%	101%	94.3%	97%	82%	85.8%	90%	97.6%	32.6%	99.8%	101%	95.1%	96.4%	102%	93.7%	77%
CN(CC#C)C/C1=C/C2=CC=CC=C2OC3=CC=CC=C13	91%	85%	92%	87.6%	90.8%	89.6%	90.1%	80.8%	84.1%	83%	87.1%	91.8%	86.1%	88.2%	91.2%	92.6%	84.7%	76.5%	83.3%	78.4%	83.1%	82%	83.3%	81%	89.8%	87.8%	88%	87.9%	88.4%	76.5%	77.2%	82%	78.4%
COc1ccc(-c2cc3nccn3c(Nc3ncccc3C(N)=O)n2)cc1OC	103%	112%	110%	112%	113%	119%	117%	115%	116%	114%	109%	97.4%	109%	105%	111%	111%	109%	97.4%	104%	114%	107%	96.5%	99%	111%	111%	105%	110%	115%	116%	90.9%	114%	101%	102%
COc1cc2c(cc1OC)C1CC(=O)C(CC(C)C)CN1CC2 (stereo not given)	122%	122%	116%	118%	113%	127%	117%	122%	116%	114%	106%	–	–	–	–	–	–	–	–	–	–	–	117%	119%	121%	124%	122%	125%	118%	125%	109%	115%	102%
COc1c(C)cnc(Cn2cnc3c(Cl)nc(N)nc32)c1C	109%	114%	106%	125%	118%	104%	85.1%	67.9%	55.1%	50.2%	50.5%	116%	123%	125%	125%	124%	94.1%	61.6%	50.5%	48%	40.9%	38.1%	110%	121%	119%	116%	115%	99.8%	58.3%	47.8%	45.1%	40.9%	37.9%
c1cncc(CN2CCC(n3ncc4c(N5CCOCC5)nc(-c5ccc6[nH]ccc6c5)nc43)CC2)c1	96.5%	99.9%	98.8%	97.5%	105%	92.2%	91.8%	88.5%	83.9%	64.8%	46.1%	77.9%	89.7%	95.4%	87.9%	91.6%	84.9%	76.1%	75.7%	63.5%	32.6%	9.35%	86.5%	92.9%	89.5%	91.7%	91.5%	81.7%	78.6%	74.6%	69.9%	31.7%	5.49%
C=CC(=O)Nc1cccc(Oc2nc(Nc3ccc(N4CCN(C)CC4)cc3)ncc2Cl)c1	109%	123%	123%	122%	131%	130%	122%	113%	102%	22.4%	52.5%	–	–	–	–	–	–	–	–	–	–	–	–	–	–	–	–	–	–	–	–	–	–
CC1=C(/C=C/C(C)=C/C=C/C(C)=C/C=C/C=C(C)/C=C/C=C(C)/C=C/C2=C(C)CCCC2(C)C)C(C)(C)CCC1	112%	112%	109%	110%	109%	106%	108%	107%	112%	95.1%	99.3%	111%	119%	110%	111%	116%	105%	111%	109%	108%	95.8%	95.4%	117%	113%	118%	108%	109%	106%	107%	106%	106%	103%	85.7%
CN(c1ncccc1CNc1nc(Nc2ccc3c(c2)CC(=O)N3)ncc1C(F)(F)F)[S+](C)(=O)[O-]	111%	117%	109%	109%	112%	112%	103%	109%	112%	101%	57.8%	111%	113%	116%	110%	121%	113%	114%	114%	100%	88.9%	50.1%	115%	118%	117%	114%	117%	108%	114%	114%	110%	105%	48.2%
CCCCCOC(=O)NC\1=N\C(=O)N(\C=C1F)[C@@H]2O[C@H](C)[C@@H](O)[C@H]2O	107%	91.7%	101%	103%	97.1%	103%	93.8%	96.4%	94.2%	89.9%	86.7%	96.7%	99.4%	97.4%	93.7%	101%	91.5%	92.6%	93.3%	89.6%	77.3%	84%	101%	96.1%	96.2%	94.8%	100%	93%	91.2%	87.2%	90.1%	83.8%	83.8%
CC1(C)CC(=O)c2c(C(F)(F)F)nn(-c3ccc(C(N)=O)c(NC4CCC(O)CC4)c3)c2C1 (stereo not given)	90.3%	87.3%	85.5%	82.4%	90%	67.1%	42%	33.7%	36.1%	36.6%	80.9%	84%	93.5%	85.6%	77.6%	82.2%	48.2%	32.1%	25.6%	27.6%	28.1%	84.5%	84.2%	81.9%	81.9%	73.1%	80.8%	44.3%	28.7%	30.4%	25.5%	27.8%	73.7%
COc1nccc(-c2c(-c3ccc(F)cc3)ncn2C2CCNCC2)n1	99.1%	108%	113%	110%	113%	100%	96%	100%	104%	90.6%	80.2%	109%	112%	106%	120%	117%	106%	108%	98.2%	109%	104%	90.5%	98.2%	111%	117%	111%	119%	110%	106%	98.9%	104%	94.7%	80.7%
CC1(C)O[C@@H]2C[C@H]3[C@@H]4CCC5=CC(=O)C=C[C@]5(C)[C@@]4(F)[C@@H](O)C[C@]3(C)[C@]2(C(=O)CO)O1	101%	105%	104%	100%	86.2%	76.7%	55.6%	63.2%	39.4%	18.5%	8.39%	111%	115%	108%	115%	76.5%	70.2%	55.3%	55.9%	40%	17.9%	7.85%	99.5%	108%	100%	93.2%	77.6%	57.9%	47.4%	52.6%	34%	30.1%	9.61%
Cc1cn2c(-c3cn[nH]c3)cnc2c(Nc2ccc(C(=O)N3CCNCC3)cc2F)n1	98.2%	104%	100%	99.8%	101%	103%	104%	97.7%	91.9%	73.4%	43.5%	105%	98.3%	95.7%	91.8%	103%	96.8%	95.1%	96.9%	90.4%	74.6%	49.2%	104%	105%	102%	99.5%	105%	107%	109%	95.6%	94.4%	65.3%	42.5%
CN(C)CCOc1cc(-c2cn[nH]c2)ccc1NC(=O)C1COc2ccccc2O1 (stereo not given)	105%	112%	103%	107%	114%	117%	110%	104%	98.7%	95.3%	95.3%	107%	113%	115%	112%	117%	118%	128%	113%	107%	88.8%	84.1%	105%	122%	123%	116%	122%	125%	128%	118%	109%	95.8%	97.2%
CCCc1nc(C(C)(C)O)c(C(=O)O)n1Cc1ccc(-c2ccccc2-c2nn[nH]n2)cc1	111%	115%	112%	117%	115%	125%	120%	119%	122%	125%	128%	109%	114%	102%	110%	116%	130%	124%	123%	126%	138%	109%	103%	70.5%	107%	107%	117%	118%	116%	117%	118%	128%	135%
